The source of these data is patent US20230234942A1, “COMPOUNDS FOR TREATING HUNTINGTON'S DISEASE” (PTC Therapeutics, Inc., priority 2020, published 2023).

A word on the IC50: it is the concentration at which inhibition is half-maximal. Read a low IC50 as greater potency in that assay.

The first assay has as its system Endogenous Huntingtin Protein. The assay is described as follows: Endogenous Huntingtin Protein Assay (ELISA-based MSD electrochemiluminescence). The format is cell-based. Particulars: Table 2; MSD plates coated with MW1 (expanded polyglutamine) or MAB2166 capture antibody; "inactive" = result above the detection limit of the assay. The gist of the method:
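Endogenous huntingtin measured on MSD plates coated with MW1 (polyglutamine-expanded) or MAB2166 capture antibody; lysates bound overnight at 4 °C. Signal developed with #56565 rabbit monoclonal and goat anti-rabbit SULFO-TAG (0.25 µg/mL, 1 h RT each), electrochemiluminescence read on SI 6000.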
For the molecule `Oc1cc(-c2cn[nH]c2)ccc1-c1cnc(N2CCNC(C3(O)CC3)C2)nn1` (centres unmarked) [Cpd 6, 2-{3-[3-(1-hydroxycyclopropyl)piperazin-1-yl]-1,2,4-triazin-6-yl}-5-(1H-pyrazol-4-yl)phenol], the concentration for half-maximal inhibition (IC50) came to 6.7 nM.

Molecule `COc1cc(-c2ccc(-c3cnc(N4CCN[C@@H](C(C)C)C4)nn3)c(O)c2)cc(C)n1` [Cpd 271, 5-(2-methoxy-6-methylpyridin-4-yl)-2-{3-[(3S)-3-(propan-2-yl)piperazin-1-yl]-1,2,4-triazin-6-yl}phenol] showed an IC50 of 943 nM.

Consider `Cc1nc2cnc(-c3ccc(-c4cnc(N5C[C@@H](C)N[C@@H](C)C5)nn4)c(O)c3)cn2n1` [Cpd 167, 2-{3-[(3R,5S)-3,5-dimethylpiperazin-1-yl]-1,2,4-triazin-6-yl}-5-(2-methyl[1,2,4]triazolo[1,5-a]pyrazin-6-yl)phenol], for which half-maximal inhibition (IC50) required 14.2 nM.

`C[C@@H]1CN(c2ncc(-c3ccc(-n4nccn4)cc3O)nn2)C[C@H](C2CCC2)N1` [Cpd 237, 2-{3-[(3S,5R)-3-cyclobutyl-5-methylpiperazin-1-yl]-1,2,4-triazin-6-yl}-5-(2H-1,2,3-triazol-2-yl)phenol] showed an IC50 of 104 nM.

The molecule `CCC[C@H]1CN(c2ncc(-c3ccc(-c4cn[nH]c4)cc3O)nn2)CCN1` [Cpd 37, 2-{3-[(3S)-3-propylpiperazin-1-yl]-1,2,4-triazin-6-yl}-5-(1H-pyrazol-4-yl)phenol] came in with an IC50 of 50.7 nM.

With `C[C@H]1CN(c2ncc(-c3ccc(-c4cn[nH]c4)cc3O)nn2)C[C@@H](C2CC2)N1` [Cpd 224, 2-{3-[(3R,5S)-3-cyclopropyl-5-methylpiperazin-1-yl]-1,2,4-triazin-6-yl]-5-(1H-pyrazol-4-yl)phenol], the IC50 was determined as 232 nM.

With `CC(C)[C@H]1CN(c2ncc(-c3ccc(-c4cnn5ccccc45)cc3O)nn2)CCN1` [Cpd 244, 2-{3-[(3S)-3-(propan-2-yl)piperazin-1-yl]-1,2,4-triazin-6-yl}-5-(pyrazolo[1,5-a]pyridin-3-yl)phenol], it took 382 nM to reach half-maximal inhibition (IC50).

Molecule `CN1CCN(c2ncc(-c3ncc(-c4cn[nH]c4)cc3O)nn2)CC1` [Cpd 124, 2-[3-(4-methylpiperazin-1-yl)-1,2,4-triazin-6-yl]-5-(1H-pyrazol-4-yl)pyridin-3-ol] displayed a half-maximal inhibitory concentration (IC50) of 609 nM.

The molecule `Cc1nc2ccc(-c3ccc(-c4cnc(N5CCN[C@@H](C(C)C)C5)nn4)c(O)c3)cn2n1` [Cpd 85, 5-(2-methyl[1,2,4]triazolo[1,5-a]pyridin-6-yl)-2-{3-[(3S)-3-(propan-2-yl)piperazin-1-yl]-1,2,4-triazin-6-yl}phenol] gave an IC50 of 6 nM.

As for `CC(C)[C@H]1CN(c2ncc(-c3ccc(-c4cnnn4C)cc3O)nn2)CCN1` [Cpd 261, 5-(1-methyl-1H-1,2,3-triazol-5-yl)-2-{3-[(3S)-3-(propan-2-yl)piperazin-1-yl]-1,2,4-triazin-6-yl}phenol], it took 993 nM to reach half-maximal inhibition (IC50).

As for `COc1cc(-c2ccc(-c3cnc(N4C[C@@H](C)N[C@@H](C)C4)nn3)c(O)c2)nn2nc(C)nc12` [Cpd 90, 2-{3-[(3R,5S)-3,5-dimethylpiperazin-1-yl]-1,2,4-triazin-6-yl}-5-(8-methoxy-2-methyl[1,2,4]triazolo[1,5-b]pyridazin-6-yl)phenol], the IC50 was 6.8 nM.

`CC(C)(O)C1CN(c2ncc(-c3ccc(-n4nccn4)cc3O)nn2)CCN1` (centres unmarked) [Cpd 14, 2-{3-[3-(2-hydroxypropan-2-yl)piperazin-1-yl]-1,2,4-triazin-6-yl}-5-(2H-1,2,3-triazol-2-yl)phenol] had an IC50 of 12.2 nM.

`Cc1nc2cnc(-c3ccc(-c4cnc(N5C[C@@H](C)N[C@@H](C)C5)nn4)c(O)c3)cn2n1` [Cpd 106, 2-{3-[(3R,5S)-3,5-dimethylpiperazin-1-yl]-1,2,4-triazin-6-yl}-5-(2-methyl[1,2,4]triazolo[1,5-a]pyrazin-6-yl)phenol] displayed an IC50 of 16.5 nM.

In the case of `Oc1cc(-c2cc(N3CCC3)ncn2)ccc1-c1cnc(N2CCNC(C3CC3)C2)nn1` (racemic) [Cpd 210, 5-[6-(azetidin-1-yl)pyrimidin-4-yl]-2-{3-[(3RS)-3-cyclopropylpiperazin-1-yl]-1,2,4-triazin-6-yl}phenol], the IC50 was 975 nM.

With `Cc1nc2c(C)cc(-c3ccc(-c4cnc(N5C[C@@H](C)N[C@@H](C)C5)nn4)c(O)c3)nn2n1` [Cpd 83, 2-{3-[(3R,5S)-3,5-dimethylpiperazin-1-yl]-1,2,4-triazin-6-yl}-5-(2,8-dimethyl[1,2,4]triazolo[1,5-b]pyridazin-6-yl)phenol], the IC50 came out at 5.6 nM.

`Cc1nc2cc(-c3ccc(-c4cnc(N5CCN[C@@H](C(C)C)C5)nn4)c(O)c3)ccn2n1` [Cpd 147, 5-(2-methyl[1,2,4]triazolo[1,5-a]pyridin-7-yl)-2-{3-[(3S)-3-(propan-2-yl)piperazin-1-yl]-1,2,4-triazin-6-yl}phenol]: it took 38.8 nM to reach half-maximal inhibition (IC50).

Turning to `C[C@@H]1CN(c2ncc(-c3ccc(-n4nccn4)cc3O)nn2)C[C@H](C)N1C` [Cpd 52, 5-(2H-1,2,3-triazol-2-yl)-2-{3-[(3R,5S)-3,4,5-trimethylpiperazin-1-yl]-1,2,4-triazin-6-yl}phenol], the 50% inhibitory concentration (IC50) is 336 nM.

With `[2H]C([2H])([2H])Oc1cc(-c2ccc(-c3cnc(N4CCN[C@@H](C(C)(C)C)C4)nn3)c(O)c2)ncn1` [Cpd 17, 2-{3-[(3S)-3-tert-butylpiperazin-1-yl]-1,2,4-triazin-6-yl}-5-{6-[(^2H3)methyloxy]pyrimidin-4-yl}phenol], inhibition was half-maximal at 14.1 nM (IC50).

Molecule `Oc1cc(-c2c[nH]nc2Cl)ccc1-c1cnc(N2CCN[C@@H](C3CC3)C2)nn1` [Cpd 163, 5-(3-chloro-1H-pyrazol-4-yl)-2-{3-[(3S)-3-cyclopropylpiperazin-1-yl]-1,2,4-triazin-6-yl}phenol] had an IC50 of 4.2 nM.

For `CC[C@H]1CN(c2ncc(-c3ccc(-c4cc(OC)ncn4)cc3O)nn2)C[C@@H](C)N1` [Cpd 234, 2-{3-[(3S,5R)-3-ethyl-5-methylpiperazin-1-yl]-1,2,4-triazin-6-yl}-5-(6-methoxypyrimidin-4-yl)phenol], inhibition was half-maximal at 8.7 nM (IC50).

The molecule `Cn1nnc2cnc(-c3ccc(-c4cnc(N5CCN[C@@H](C6CC6)C5)nn4)c(O)c3)cc21` [Cpd 174, 2-{3-[(3S)-3-cyclopropylpiperazin-1-yl]-1,2,4-triazin-6-yl}-5-(1-methyl-1H-[1,2,3]triazolo[4,5-c]pyridin-6-yl)phenol] yielded a half-maximal inhibitory concentration (IC50) of 607 nM.

Consider `Cc1cncc(-c2ccc(-c3cnc(N4CCN[C@@H](C(C)C)C4)nn3)c(O)c2)n1` [Cpd 143, 5-(6-methylpyrazin-2-yl)-2-{3-[(3S)-3-(propan-2-yl)piperazin-1-yl]-1,2,4-triazin-6-yl}phenol], for which the half-inhibitory concentration (IC50) came out at 634 nM.

Turning to `Oc1cc(-c2cnn3c2CCCC3)ccc1-c1cnc(N2CCNC(C3CC3)C2)nn1` (single isomer, unassigned) [Cpd 277, 2-{3-[(3S)-3-cyclopropylpiperazin-1-yl]-1,2,4-triazin-6-yl}-5-(4,5,6,7-tetrahydropyrazolo[1,5-a]pyridin-3-yl)phenol or 2-{3-[(3R)-3-cyclopropylpiperazin-1-yl]-1,2,4-triazin-6-yl}-5-(4,5,6,7-tetrahydropyrazolo[1,5-a]pyridin-3-yl)phenol], the IC50 worked out at 24.8 nM.

`CC(C)[C@H]1CN(c2ncc(-c3ccc(-c4nc5cccnc5s4)cc3O)nn2)CCN1` [Cpd 191, 2-{3-[(3S)-3-(propan-2-yl)piperazin-1-yl]-1,2,4-triazin-6-yl}-5-([1,3]thiazolo[5,4-b]pyridin-2-yl)phenol] showed an IC50 of 621 nM.

Molecule `Cc1cn2nc(-c3ccc(-c4cnc(N5C[C@@H](C)N[C@@H](C)C5)nn4)c(O)c3)ccc2n1` [Cpd 75, 2-{3-[(3R,5S)-3,5-dimethylpiperazin-1-yl]-1,2,4-triazin-6-yl}-5-(2-methylimidazo[1,2-b]pyridazin-6-yl)phenol] registered an IC50 of 4.3 nM.

On to `CC(C)[C@H]1CN(c2ncc(-c3ccc(-c4cnsn4)cc3O)nn2)CCN1` [Cpd 265, 2-{3-[(3S)-3-(propan-2-yl)piperazin-1-yl]-1,2,4-triazin-6-yl}-5-(1,2,5-thiadiazol-3-yl)phenol], for which the 50% inhibitory concentration (IC50) worked out at 292 nM.

The molecule `Cc1ncc2cc(-c3ccc(-c4cnc(N5CCN[C@@H](C6CC6)C5)nn4)c(O)c3)ccn12` [Cpd 195, 2-{3-[(3S)-3-cyclopropylpiperazin-1-yl]-1,2,4-triazin-6-yl}-5-(3-methylimidazo[1,5-a]pyridin-7-yl)phenol] had an IC50 of 9.1 nM.

The same assay, now with this note: Table 3; selected compounds from WO/2019/191229 A1, same MSD assay.
`CC1CN(c2ncc(-c3ccc(-c4cnn(C)c4)cc3O)nn2)CC(C)N1` (centres unmarked) [WO/2019/191229 A1 Cpd 263, reference compound] returned an IC50 of 352 nM.

Regarding `C[C@@H]1CN(c2ncc(-c3ccc(-c4ccc5nccn5n4)cc3O)nn2)C[C@H](C)N1` [WO/2019/191229 A1 Cpd 385, reference compound], half-maximal inhibition (IC50) required 33.1 nM.
